*1 amine or outer side, *2 acyl side, *3 side chain or, on linkers, in order; H or OH if unused. Where a SMILES comes first, the peptide text is derived from it. Side-chain parts run from the residue outwards. [ ]: non-standard residue; d: D form. The star is where a group is joined. C20 diacid = O=C(O)CCCCCCCCCCCCCCCCCCC(=O)*; γGlu = O=C(O)[C@H](CCC(=O)[*:2])N[*:1]; αMeL = CC(C)C[C@](C)(N)C(=O)O; AEEA = NCCOCCOCC(=O)O; Aib = CC(C)(N)C(=O)O
Legend:
[1] = target: T1, human glucagon receptor (GcgR) (Homo sapiens, UniProt P47871); assay: Radioligand competition binding (SPA), human GcgR membranes
T1 construct: expressed in transfected cells; host or cells: HEK293 (membranes)
Excerpt: (§1) Radioligand competition binding assays are run to determine the equilibrium dissociation constant for exemplary compounds and comparator molecules.
(§2) Competition curves are plotted as the percent specific inhibition (y-axis) versus log concentration of compound (x-axis) and analyzed using a four parameter nonlinear regression fit with variable slope (ABase or Genedata).

[2] = target: T2, human GIP receptor (GIPR) (Homo sapiens, UniProt P48546); assay: Radioligand competition binding (SPA), human GIPR membranes
T2 construct: expressed in transfected cells; host or cells: HEK293 (membranes)
T2 sequence (P48546 22-466): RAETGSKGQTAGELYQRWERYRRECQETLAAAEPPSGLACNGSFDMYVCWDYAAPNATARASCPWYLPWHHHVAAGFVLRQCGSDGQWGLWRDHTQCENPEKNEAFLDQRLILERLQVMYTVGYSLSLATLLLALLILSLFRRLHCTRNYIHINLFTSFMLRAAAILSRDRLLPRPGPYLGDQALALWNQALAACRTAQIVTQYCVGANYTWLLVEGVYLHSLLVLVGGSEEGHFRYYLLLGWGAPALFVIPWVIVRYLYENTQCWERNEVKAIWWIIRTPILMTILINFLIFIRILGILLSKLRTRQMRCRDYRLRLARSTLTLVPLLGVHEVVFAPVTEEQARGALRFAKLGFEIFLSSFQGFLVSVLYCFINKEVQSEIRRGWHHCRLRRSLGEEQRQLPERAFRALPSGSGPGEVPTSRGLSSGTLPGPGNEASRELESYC
Excerpt: as §1, §2

GLP-1 receptor (GLP-1R) = target: T3, GLP-1 receptor (GLP-1R) (Homo sapiens, UniProt P43220); assay: Radioligand competition binding (SPA), human GLP-1R membranes
T3 construct: expressed in transfected cells; host or cells: HEK293 (membranes)
Excerpt: as §1, §2

[3] = Pharmacokinetics in male Sprague Dawley rats; conditions: for CL/F / Tmax / half-life: male, Sprague-Dawley, rat, plasma, sc, 100 nmol/kg; for AUCINF_D_obs / Cmax/D: single subcutaneous 100 nMol/kg, male Sprague Dawley rats, n = 3
Description: The pharmacokinetics of the exemplary analogs are evaluated following a single subcutaneous administration of 100 nM/kg to male Sprague Dawley rats. Blood samples are collected over 120 hours, and resulting individual plasma concentrations are used to calculate pharmacokinetic parameters. Peptide plasma (K3 EDTA) concentrations are determined using a qualified LC/MS method that measured the intact mass of the analog. Each peptide and an analog as an internal standard are extracted from 100% specie specified plasma using methanol with 0.1% formic acid. A Thermo Q-Exactive, High Resolution Instrument, and a Thermo Easy Spray PepMap are combined for LC/MS detection.

T1 sequence (P47871 26-477): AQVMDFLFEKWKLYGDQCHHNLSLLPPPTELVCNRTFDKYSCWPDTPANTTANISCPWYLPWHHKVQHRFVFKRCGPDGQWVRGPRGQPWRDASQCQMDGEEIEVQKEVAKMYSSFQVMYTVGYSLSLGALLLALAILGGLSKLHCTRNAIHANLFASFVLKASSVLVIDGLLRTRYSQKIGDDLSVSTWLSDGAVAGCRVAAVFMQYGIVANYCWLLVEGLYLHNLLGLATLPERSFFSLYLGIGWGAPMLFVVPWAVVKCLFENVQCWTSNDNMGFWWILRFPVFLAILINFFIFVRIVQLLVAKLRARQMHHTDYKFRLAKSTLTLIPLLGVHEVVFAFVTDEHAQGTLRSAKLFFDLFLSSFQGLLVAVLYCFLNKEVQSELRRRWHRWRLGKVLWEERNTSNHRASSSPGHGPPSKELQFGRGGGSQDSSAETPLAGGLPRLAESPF
T3 sequence (P43220 24-463): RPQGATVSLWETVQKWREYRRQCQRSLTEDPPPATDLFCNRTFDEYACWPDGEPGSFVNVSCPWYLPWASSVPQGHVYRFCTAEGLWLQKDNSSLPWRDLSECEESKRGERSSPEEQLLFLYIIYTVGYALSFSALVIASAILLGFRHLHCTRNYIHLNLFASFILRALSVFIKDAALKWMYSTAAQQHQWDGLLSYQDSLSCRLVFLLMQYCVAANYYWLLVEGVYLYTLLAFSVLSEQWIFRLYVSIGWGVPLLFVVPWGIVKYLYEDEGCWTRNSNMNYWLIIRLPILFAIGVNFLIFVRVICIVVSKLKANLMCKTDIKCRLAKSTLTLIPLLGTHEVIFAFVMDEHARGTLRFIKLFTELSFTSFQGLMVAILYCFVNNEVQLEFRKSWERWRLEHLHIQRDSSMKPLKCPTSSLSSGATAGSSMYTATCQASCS

| SMILES | Ki [1] | Ki [2] | Ki (GLP-1 receptor (GLP-1R)) | CL/F [3] | Tmax [3] | half-life [3] | AUCINF_D_obs [3] | Cmax/D [3] |
| --- | --- | --- | --- | --- | --- | --- | --- | --- |
| CC[C@H](C)[C@H](NC(=O)[C@H](Cc1ccccc1)NC(=O)[C@H](C)NC(=O)[C@](C)(CCCCN)NC(=O)[C@H](CCC(N)=O)NC(=O)[C@H](C)NC(=O)[C@H](CCCCNC(=O)COCCOCCNC(=O)COCCOCCNC(=O)CC[C@H](NC(=O)CCCCCCCCCCCCCCCCCCC(=O)O)C(=O)O)NC(=O)[C@H](CCCCN)NC(=O)[C@H](CC(=O)O)NC(=O)[C@H](CC(C)C)NC(=O)[C@](C)(CC(C)C)NC(=O)[C@@H](NC(=O)[C@H](CO)NC(=O)[C@H](Cc1ccc(O)cc1)NC(=O)[C@H](CC(=O)O)NC(=O)[C@H](CO)NC(=O)[C@@H](NC(=O)[C@H](Cc1ccccc1)NC(=O)[C@@H](NC(=O)CNC(=O)[C@H](CCC(N)=O)NC(=O)C(C)(C)NC(=O)[C@@H](N)Cc1ccc(O)cc1)[C@@H](C)O)[C@@H](C)O)[C@@H](C)CC)C(=O)N[C@@H](CCC(=O)O)C(=O)N[C@@H](Cc1ccc(O)cc1)C(=O)N[C@@H](CC(C)C)C(=O)N[C@@H](CC(C)C)C(=O)N[C@@H](CCC(=O)O)C(=O)NCC(=O)NCC(=O)N1CCC[C@H]1C(=O)N[C@@H](CO)C(=O)N[C@@H](CO)C(=O)NCC(=O)N[C@@H](C)C(=O)N1CCC[C@H]1C(=O)N1CCC[C@H]1C(=O)N1CCC[C@H]1C(=O)N[C@@H](CO)C(N)=O [Example 3] | 12 nM | 0.0446 nM | 6.06 nM | 6.9 mL/h/kg | 16 h | 19.2 h | 146 hr*kg*nmol/L/nmol | 2.5 kg*nmol/L/nmol |
| CC[C@H](C)[C@H](NC(=O)[C@H](Cc1ccccc1)NC(=O)[C@H](C)NC(=O)[C@H](CCC(N)=O)NC(=O)[C@H](C)NC(=O)[C@H](C)NC(=O)[C@H](CCCCNC(=O)COCCOCCNC(=O)COCCOCCNC(=O)CC[C@H](NC(=O)CCCCCCCCCCCCCCCCCCC(=O)O)C(=O)O)NC(=O)[C@H](CCCCN)NC(=O)[C@H](CC(=O)O)NC(=O)[C@H](CC(C)C)NC(=O)[C@](C)(CC(C)C)NC(=O)[C@@H](NC(=O)[C@H](CO)NC(=O)[C@H](Cc1ccc(O)cc1)NC(=O)[C@H](CC(=O)O)NC(=O)[C@H](CO)NC(=O)[C@@H](NC(=O)[C@H](Cc1ccccc1)NC(=O)[C@@H](NC(=O)CNC(=O)[C@H](CCC(N)=O)NC(=O)C(C)(C)NC(=O)[C@@H](N)Cc1ccc(O)cc1)[C@@H](C)O)[C@@H](C)O)[C@@H](C)CC)C(=O)N[C@@H](CCC(=O)O)C(=O)N[C@@H](Cc1ccc(O)cc1)C(=O)N[C@@H](CC(C)C)C(=O)N[C@@H](CC(C)C)C(=O)N[C@@H](CCC(=O)O)C(=O)NCC(=O)NCC(=O)N1CCC[C@H]1C(=O)N[C@@H](CO)C(=O)N[C@@H](CO)C(=O)NCC(=O)N[C@@H](C)C(=O)N1CCC[C@H]1C(=O)N1CCC[C@H]1C(=O)N1CCC[C@H]1C(=O)N[C@@H](CO)C(N)=O [Example 6] (H-Y[Aib]QGTFTSDYSI[αMeL]LDKK([AEEA-AEEA-γGlu-C20 diacid])AAQAFIEYLLEGGPSSGAPPPS-NH2; N-terminus assumed) | 0.835 nM | 0.249 nM | 36.7 nM |  |  |  |  |  |
| CC[C@H](C)[C@H](NC(=O)[C@H](Cc1ccccc1)NC(=O)[C@H](C)NC(=O)[C@H](Cc1c[nH]cn1)NC(=O)[C@H](CCC(N)=O)NC(=O)[C@H](C)NC(=O)[C@H](CCCCNC(=O)COCCOCCNC(=O)COCCOCCNC(=O)CC[C@H](NC(=O)CCCCCCCCCCCCCCCCCCC(=O)O)C(=O)O)NC(=O)[C@H](CCCCN)NC(=O)[C@H](CC(=O)O)NC(=O)[C@H](CC(C)C)NC(=O)[C@](C)(CC(C)C)NC(=O)[C@@H](NC(=O)[C@H](CO)NC(=O)[C@H](Cc1ccc(O)cc1)NC(=O)[C@H](CC(=O)O)NC(=O)[C@H](CO)NC(=O)[C@@H](NC(=O)[C@H](Cc1ccccc1)NC(=O)[C@@H](NC(=O)CNC(=O)[C@H](CCC(N)=O)NC(=O)C(C)(C)NC(=O)[C@@H](N)Cc1ccc(O)cc1)[C@@H](C)O)[C@@H](C)O)[C@@H](C)CC)C(=O)N[C@@H](CCC(=O)O)C(=O)N[C@@H](Cc1ccc(O)cc1)C(=O)N[C@@H](CC(C)C)C(=O)N[C@@H](CC(C)C)C(=O)N[C@@H](CCC(=O)O)C(=O)NCC(=O)NCC(=O)N1CCC[C@H]1C(=O)N[C@@H](CO)C(=O)N[C@@H](CO)C(=O)NCC(=O)N[C@@H](C)C(=O)N1CCC[C@H]1C(=O)N1CCC[C@H]1C(=O)N1CCC[C@H]1C(=O)N[C@@H](CO)C(N)=O [Example 7] (H-Y[Aib]QGTFTSDYSI[αMeL]LDKK([AEEA-AEEA-γGlu-C20 diacid])AQHAFIEYLLEGGPSSGAPPPS-NH2) | 16.3 nM | 0.11 nM | 21.4 nM |  |  |  |  |  |
| CC[C@H](C)[C@H](NC(=O)[C@H](Cc1ccccc1)NC(=O)[C@H](C)NC(=O)[C@H](Cc1c[nH]cn1)NC(=O)[C@H](CCC(N)=O)NC(=O)[C@H](C)NC(=O)[C@H](CCCCNC(=O)COCCOCCNC(=O)CC[C@H](NC(=O)CCCCCCCCCCCCCCCCCCC(=O)O)C(=O)O)NC(=O)[C@H](CCCCN)NC(=O)[C@H](CC(=O)O)NC(=O)[C@H](CC(C)C)NC(=O)[C@](C)(CC(C)C)NC(=O)[C@@H](NC(=O)[C@H](CO)NC(=O)[C@H](Cc1ccc(O)cc1)NC(=O)[C@H](CC(=O)O)NC(=O)[C@H](CO)NC(=O)[C@@H](NC(=O)[C@H](Cc1ccccc1)NC(=O)[C@@H](NC(=O)CNC(=O)[C@H](CCC(N)=O)NC(=O)C(C)(C)NC(=O)[C@@H](N)Cc1ccc(O)cc1)[C@@H](C)O)[C@@H](C)O)[C@@H](C)CC)C(=O)N[C@@H](CCC(=O)O)C(=O)N[C@@H](Cc1ccc(O)cc1)C(=O)N[C@@H](CC(C)C)C(=O)N[C@@H](CC(C)C)C(=O)N[C@@H](CCC(=O)O)C(=O)NCC(=O)NCC(=O)N1CCC[C@H]1C(=O)N[C@@H](CO)C(=O)N[C@@H](CO)C(=O)NCC(=O)N[C@@H](C)C(=O)N1CCC[C@H]1C(=O)N1CCC[C@H]1C(=O)N1CCC[C@H]1C(=O)N[C@@H](CO)C(N)=O [Example 10] (H-Y[Aib]QGTFTSDYSI[αMeL]LDKK([AEEA-γGlu-C20 diacid])AQHAFIEYLLEGGPSSGAPPPS-NH2; N-terminus assumed) | 7.37 nM | 0.118 nM | 12 nM | 4.9 mL/h/kg | 24 h | 23.4 h | 203.5 hr*kg*nmol/L/nmol | 3.1 kg*nmol/L/nmol |
| CC[C@H](C)[C@H](NC(=O)[C@H](Cc1ccccc1)NC(=O)[C@H](C)NC(=O)C(C)(C)NC(=O)[C@H](CCC(N)=O)NC(=O)[C@H](C)NC(=O)[C@H](CCCCNC(=O)COCCOCCNC(=O)COCCOCCNC(=O)CC[C@H](NC(=O)CCCCCCCCCCCCCCCCCCC(=O)O)C(=O)O)NC(=O)[C@H](CCCCN)NC(=O)[C@H](CC(=O)O)NC(=O)[C@H](CC(C)C)NC(=O)[C@](C)(CC(C)C)NC(=O)[C@@H](NC(=O)[C@H](CO)NC(=O)[C@H](Cc1ccc(O)cc1)NC(=O)[C@H](CC(=O)O)NC(=O)[C@H](CO)NC(=O)[C@@H](NC(=O)[C@H](Cc1ccccc1)NC(=O)[C@@H](NC(=O)CNC(=O)[C@H](CCC(N)=O)NC(=O)C(C)(C)NC(=O)[C@@H](N)Cc1ccc(O)cc1)[C@@H](C)O)[C@@H](C)O)[C@@H](C)CC)C(=O)N[C@@H](CCC(=O)O)C(=O)N[C@@H](Cc1ccc(O)cc1)C(=O)N[C@@H](CC(C)C)C(=O)N[C@@H](CC(C)C)C(=O)N[C@@H](CCC(=O)O)C(=O)NCC(=O)NCC(=O)N1CCC[C@H]1C(=O)N[C@@H](CO)C(=O)N[C@@H](CO)C(=O)NCC(=O)N[C@@H](C)C(=O)N1CCC[C@H]1C(=O)N1CCC[C@H]1C(=O)N1CCC[C@H]1C(=O)N[C@@H](CO)C(N)=O [Example 11] | 10.8 nM | 0.089 nM | 9.97 nM | 4.7 mL/h/kg | 20 h | 24.3 h | 215.1 hr*kg*nmol/L/nmol | 3.7 kg*nmol/L/nmol |
| CC[C@H](C)[C@H](NC(=O)[C@H](Cc1ccccc1)NC(=O)[C@H](C)NC(=O)C(C)(C)NC(=O)[C@H](CCC(N)=O)NC(=O)[C@H](C)NC(=O)[C@H](CCCCNC(=O)COCCOCCNC(=O)CC[C@H](NC(=O)CCCCCCCCCCCCCCCCCCC(=O)O)C(=O)O)NC(=O)[C@H](CCCCN)NC(=O)[C@H](CC(=O)O)NC(=O)[C@H](CC(C)C)NC(=O)[C@](C)(CC(C)C)NC(=O)[C@@H](NC(=O)[C@H](CO)NC(=O)[C@H](Cc1ccc(O)cc1)NC(=O)[C@H](CC(=O)O)NC(=O)[C@H](CO)NC(=O)[C@@H](NC(=O)[C@H](Cc1ccccc1)NC(=O)[C@@H](NC(=O)CNC(=O)[C@H](CCC(N)=O)NC(=O)C(C)(C)NC(=O)[C@@H](N)Cc1ccc(O)cc1)[C@@H](C)O)[C@@H](C)O)[C@@H](C)CC)C(=O)N[C@@H](CCC(=O)O)C(=O)N[C@@H](Cc1ccc(O)cc1)C(=O)N[C@@H](CC(C)C)C(=O)N[C@@H](CC(C)C)C(=O)N[C@@H](CCC(=O)O)C(=O)NCC(=O)NCC(=O)N1CCC[C@H]1C(=O)N[C@@H](CO)C(=O)N[C@@H](CO)C(=O)NCC(=O)N[C@@H](C)C(=O)N1CCC[C@H]1C(=O)N1CCC[C@H]1C(=O)N1CCC[C@H]1C(=O)N[C@@H](CO)C(N)=O [Example 12] | 5.6 nM |  |  | 5.1 mL/h/kg | 24 h | 26.5 h | 197.1 hr*kg*nmol/L/nmol | 3.7 kg*nmol/L/nmol |

From US11542313B2, “Incretin analogs and uses thereof” (Eli Lilly and Company, priority 2017, dated 2023)
